# Laboratory results: PMC6367342, “The major allergen Der p 2 is a cholesterol binding protein” (Scientific Reports, 2019)
# Target: T1, rDer f 2 (Dermatophagoides farinae, UniProt Q00855)
# T1 construct: gene DERF2
# T1 sequence (Q00855 18-146): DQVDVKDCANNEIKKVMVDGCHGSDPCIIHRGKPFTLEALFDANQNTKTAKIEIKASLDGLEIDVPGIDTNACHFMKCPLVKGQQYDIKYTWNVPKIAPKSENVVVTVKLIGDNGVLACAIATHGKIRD
# Test: lipid ELISA on immobilized lipid, polyclonal anti-allergen IgG detection
# Format: binding
# Settings: 0.5 ug/mL protein; lipid coated 0.02-6.40 nmol/well; PBS, 1% BSA block; 1 h
structure (smiles),measurement,value
CC(C)CCC[C@@H](C)[C@H]1CC[C@H]2[C@@H]3CC=C4C[C@@H](O)CC[C@]4(C)[C@H]3CC[C@]12C [cholesterol],"lipid ELISA on immobilized lipid, polyclonal anti-allergen IgG detection","also showed dose-dependent binding to cholesterol, but not POPG"
